Data on 14 compounds can be found in US9884122B2, “Small molecule drug conjugates” (Philochem AG, priority 2014, dated 2018).

Series [1] has as its target T1, recombinant carbonic anhydrase IX (Homo sapiens, UniProt Q16790).
T1 construct: Recombinant CAIX was expressed as described previously; made in house
The experiment in a line: Determination of ligand KD by fluorescence polarization. The conditions noted are these: for Kd: 5 nM labeled ligand, 1 h room temperature, read-out: KD for fluorophore-linker-ligand complexes. The format is binding. The procedure:
Fluorescently labeled ligands (2 mg) were dissolved in DMSO (100 μL) and diluted 1:2000 into PBS pH 7.4 to determine the stock's concentration by absorbance measurement at 495 nm (ε495=72,000 M^−1 cm^−1). Recombinant CAIX was expressed as described previously^[3], dialyzed against assay buffer (50 mM tris(hydroxymethyl)aminomethane [TIRS] pH 7.4 containing 1 mM ZnSO4) at 4° C. overnight and the protein concentration determined by absorbance measurement at 280 nm (ε280=35,075 M^−1 cm^−1).
In a black 384-well plate in assay buffer (30 μL) fluorescently labeled ligands (5 nM from appropriately diluted DMSO stocks, final DMSO content adjusted to 0.001%) were incubated with increasing concentrations of recombinant carbonic anhydrase IX (4.6 μM to 140 pM in steps of 1:2) for 1 h at room temperature. The fluorescence polarization (FP) was measured on a Spectra Max Paradigm multimode plate reader (Molecular Devices). Experiments were performed in triplicate, mean FP values divided by the top-plateau signal and the fractional FP value fit to equation (2) using KaleidaGraph 4.0 (Synergy Software). FP=([P]0+[L]0+KD)−√{square root over (([P]0+[L]0+KD)^2−4[P]0[L]0)} (2)
Where FP is the fractional fluorescence polarization, [P]0 the total protein concentration, [L]0 the total concentration of the fluorescently labeled ligand and KD the dissociation constant in nM.

The subject of series [2] is CAIX expressing SKRC52 cells. The experiment in a line: In vitro cytotoxicity assay (MTS). Format: cell-based, human. The procedure:
SKRC52 or A549 cells were seeded in 96-well plates in their appropriate culture medium (100 μL) at a density of 5000 cells per well and allowed to grow for 24 h. The medium was replaced with medium containing different concentrations of test substance (100 μL, 300 nM-15 pM in 1:3 dilution steps) and plates were either:
(a) incubated for 72 hours in the presence of the toxic substance, or
(b) incubated for 1 h under standard culture conditions, followed by removal of the medium containing the toxic substance, gently washing the cells fresh medium once and adding new medium (100 μL) and incubating for 72 h under culture conditions.
MTS cell viability dye (20 μL, Promega) was added, the plates were incubated for 1 h under culture conditions and the absorbance at 490 nm measured on a Spectra Max Paradigm multimode plate reader (Molecular Devices). Experiments were performed in triplicate and average cell viability calculated as measured background corrected absorbance divided by the absorbance of untreated control wells. EC50 values were determined by fitting data to the four-parameter logistic equation.

Series [3] relates to subcutaneous SKRC52 tumors. The conditions noted are these: 3 nmol intravenous, 1-12 h.
Procedure: SKRC52 cells were grown to 80% confluence and detached with Trypsin-EDTA 0.05% (Invitrogen). Cells were washed with PBS pH 7.4 once, counted and resuspended in PBS to a final concentration of 6.7×10^7 cells mL^−1. Athymic balb/c nu/nu mice, 8-10 weeks of age (Charles River) were anesthetized with isofluorane and aliquots of 1×10^7 cells (150 μL of suspension) injected subcutaneously into their lower back.
Food and water was given ad libitum during that period.
Mice were subsequently sacrificed by cervical dislocation.
In another series the test system is SKRC52 xenograft tumors. The procedure: SKRC52 xenograft tumors were implanted into balb/c nu/nu mice (Charles River) as described above. […] 5 doses of 4 nmol 7a,b, 8a,b or 7 doses of 70 nmol 9a,b each in PBS pH 7.4 (150 μL) containing 5% DMSO were given on 5 or 7 consecutive days and one group was treated with vehicle (5% DMSO in PBS pH 7.4). In the case of 7-9b an equimolar amount of AAZ was added to the injection solution to control for a possible antitumor activity of CAIX inhibitors. Sorafenib and sunitnib were administered at a standard dose of 30 mg/kg as described previously.^[5] Animals were weighed and tumor sizes measured daily and the tumor volume calculated according to the formula (long side)×(short side)^2×0.5. […] Prism 6 (GraphPad Software) was used for data analysis (regular two-way ANOVA with the Bonferroni test).

In series [4] the test system is CAIX-expressing SKRC52 xenografts. Conditions: mouse, in vivo.
The target of series [5] is T1, recombinant carbonic anhydrase IX. The experiment in a line: biochemical. Format: binding. How it is done:
The FP was measured on a Spectra Max Paradigm multimode plate reader (Molecular Devices). Experiments were performed in triplicate and data analyzed as described by Wang and co-workers.^[4]

Where [6] appears, read: Homo sapiens, SK-RC-52, Condition (a): incubated 72 hours in the presence of the toxic substance.
Where [7] appears, read: Homo sapiens, SK-RC-52, Condition (b): 1 h exposure, wash, then 72 h, concentrations up to 300 nM.
Where [8] appears, read: Condition (b): 1 h exposure, wash, then 72 h, concentrations up to 300 nM.

For orientation: Kd means the free concentration of one partner at which half of the binding sites on the other are occupied at equilibrium, for simple one-to-one binding. For orientation: EC50 means the midpoint of the concentration-response curve.

Take `NS(=O)(=O)c1ccc(Nc2nc(Cl)nc(NCCOCCOCCNC(=S)Nc3ccc(-c4c5ccc(=O)cc-5oc5cc(O)ccc45)c(C(=O)O)c3)n2)cc1` [Compound 3a, 4-((4-((2-(2-(2-aminoethoxy)ethoxy)ethyl)amino)-6-chloro-1,3,5-triazin-2-yl)amino)benzenesulfonamide fluorescein conjugate]: in series [1], the equilibrium dissociation constant (Kd) was determined as 46.8 ± 1.2 nM.

On to `NS(=O)(=O)c1nnc(NC(=O)CCC(=O)NCCOCCOCCNC(=S)Nc2ccc(-c3c4ccc(=O)cc-4oc4cc(O)ccc34)c(C(=O)O)c2)s1` [Compound 1a, N1-(2-(2-(2-aminoethoxy)ethoxy)ethyl)-N4-(5-sulfamoyl-1,3,4-thiadiazol-2-yl)succinamide fluorescein conjugate], for which, in series [1], the equilibrium dissociation constant (Kd) came out at 12.6 ± 1 nM.

With `COc1cc2[nH]c(C(=O)N3C[C@@H](CCl)c4c3cc(O)c3ccccc43)cc2cc1OCCN(C)C` [Compound 14, Seco CBI Drug], the EC50 was found to be 0.055 ± 0.005 nM in series [2] (setting [6]) and 1 ± 0.1 nM in series [2] (setting [7]). For the compound `CC(C)(C)OC(=O)NCCOCCOCCNC(=S)Nc1ccc(-c2c3ccc(=O)cc-3oc3cc(O)ccc23)c(C(=O)O)c1` [Compound 6a, Tert-butyl (2-(2-(2-aminoethoxy)ethoxy)ethyl)carbamate fluorescein conjugate], the “binding to CAIX (in words)” value in series [1] is “did not bind to the CAIX”. As for `CC(C)[C@@H](C(=O)NCCOCCOCCNC(=O)CCCCc1ccc(C2=C(/C=C/C3=[N+](CCCCS(=O)(=O)O)c4ccc(S(=O)(=O)O)cc4C3(C)C)CCC/C2=C\C=C2\N(CCCCS(=O)(=O)O)c3ccc(S(=O)(=O)[O-])cc3C2(C)C)cc1)n1cc(-c2ccc(S(N)(=O)=O)cc2)nn1` [Compound 2c, (S)—N-(2-(2-(2-aminoethoxy)ethoxy)ethyl)-3-methyl-2-(4-(4-sulfamoylphenyl)-1H-1,2,3-triazol-1-yl)butanamide IRDye750 conjugate], in series [3], the “tumor targeting by near infrared imaging” value is given as “the tumor was barely visible”.

Turning to `CNC(=O)c1cc(Oc2ccc(NC(=O)Nc3ccc(Cl)c(C(F)(F)F)c3)cc2)ccn1` [sorafenib, reference compound], in the series with SKRC52 xenograft tumors (standard dose of 30 mg/kg), the “antitumor effect of standard drugs” value is “neither sorafenib nor sunitinib, which represent the most commonly used chemotherapeutic agents for the treatment of kidney cancer, exhibited any detectable antitumor effect”. Turning to `CC1(C)C(/C=C/C2=C(c3ccc(CCCCC(=O)NCCOCCOCCNC(=O)[C@H](CCCCNC(=O)[C@H](CC(=O)O)NC(=O)[C@H](CC(=O)O)NC(=O)CCCCn4cc(CCCC(=O)Nc5nnc(S(N)(=O)=O)s5)nn4)NC(=O)[C@H](CC(=O)O)NC(=O)[C@H](CC(=O)O)NC(=O)CCCCn4cc(CCCC(=O)Nc5nnc(S(N)(=O)=O)s5)nn4)cc3)C(=C/C=C3/N(CCCCS(=O)(=O)O)c4ccc(S(=O)(=O)O)cc4C3(C)C)/CCC2)=[N+](CCCCS(=O)(=O)[O-])c2ccc(S(=O)(=O)O)cc21` [Compound B4], in series [4], the “accumulation in the tumour (imaging)” value is given as “strongly accumulated in the tumour”; the “integrated fluorescence signal in the tumour, of its initial value” came to 40%; the “residence on the tumour” value was “significantly longer residence on the tumour”; the “tumour:lung ratio” value was “higher tumour:lung ratio than B3”. For the compound `NS(=O)(=O)c1ccc(C(=O)NCCOCCOCCNC(=S)Nc2ccc(-c3c4ccc(=O)cc-4oc4cc(O)ccc34)c(C(=O)O)c2)cc1` [Compound 5a, N-(2-(2-(2-aminoethoxy)ethoxy)ethyl)-4-sulfamoylbenzamide fluorescein conjugate], in series [1], the dissociation constant Kd stood at 218 ± 9 nM. Consider `COc1cc2cc(c1Cl)N(C)C(=O)C[C@H](OC(=O)[C@H](C)N(C)C(=O)CCS)[C@]1(C)O[C@H]1[C@H](C)[C@@H]1C[C@@](O)(NC(=O)O1)[C@H](OC)/C=C/C=C(\C)C2` [DM1, reference compound], for which the EC50 in series [2] (setting [8]) was 45 ± 10 nM. For `COc1cc2[nH]cc(C(=O)N3C[C@@H](CCl)c4c3cc(OC(=O)OCCSSC[C@H](NC(=O)[C@H](CC(=O)O)NC(=O)[C@H](CCCNC(=N)N)NC(=O)[C@H](CC(=O)O)NC(=O)CCCCn3cc(CCCC(=O)O)nn3)C(=O)O)c3ccccc43)c2cc1OCCN(C)C` [Compound 7b, Untargeted CBI Carbonate], the “binding affinity for recombinant CAIX in vitro (in words)” value (“binding affinity for recombinant CAIX” below) in series [5] was “do not exhibit strong binding”. The dissociation constant Kd in series [5] (unlabeled drug-linker conjugate, read-out: KD (competitive fluorescence polarization)) was > 1000 nM. Also, the EC50 in series [2] (setting [8]) amounted to 1.4 ± 0.3 nM. For `COc1cc2cc(c1Cl)N(C)C(=O)C[C@@H](OC(=O)[C@@H](C)NC(=O)CCSC)[C@]1(C)O[C@@H]1[C@@H](C)[C@@H]1C[C@](O)(NC(=O)O1)[C@@H](OC)/C=C/C=C(\C)C2` [DM1SMe, DM1-SMe, reference compound], the EC50 in series [2] (setting [6]) was 0.5 nM; in series [2] (setting [7]) it was 5.8 ± 1.1 nM. Consider `COc1cc2[nH]cc(C(=O)N3C[C@@H](CCl)c4c3cc(OC(=O)N(C)CCSSC[C@H](NC(=O)[C@H](CC(=O)O)NC(=O)[C@H](CCCNC(=N)N)NC(=O)[C@H](CC(=O)O)NC(=O)CCCCn3cc(CCCC(=O)O)nn3)C(=O)O)c3ccccc43)c2cc1OCCN(C)C` [Compound 8b, Untargeted CBI Carbamate], for which the “binding affinity for recombinant CAIX” value in series [5] is given as “do not exhibit strong binding”. In addition, in the series on SKRC52 xenograft tumors (5 doses of 4 nmol on 5 consecutive days, 7a vs vehicle p<0.0001, vs 7b plus AAZ p<0.05), the tumor growth effect entry is “did not lead to any retardation in tumor growth”. `COc1cc2cc(c1Cl)N(C)C(=O)C[C@H](OC(=O)[C@H](C)N(C)C(=O)CCSSC[C@H](NC(=O)[C@H](CC(=O)O)NC(=O)[C@H](CCCNC(=N)N)NC(=O)[C@H](CC(=O)O)NC(=O)CCCCn1cc(CCCC(=O)O)nn1)C(=O)O)[C@@]1(C)O[C@H]1[C@H](C)[C@@H]1C[C@@](O)(NC(=O)O1)[C@H](OC)/C=C/C=C(\C)C2` [Compound 9b, Untargeted DM1 Conjugate]: the “binding affinity for recombinant CAIX” value in series [5] is reported as “do not exhibit strong binding”. In the case of `CC(C)[C@@H](C(=O)NCCOCCOCCNC(=S)Nc1ccc(-c2c3ccc(=O)cc-3oc3cc(O)ccc23)c(C(=O)O)c1)n1cc(-c2ccc(S(N)(=O)=O)cc2)nn1` [Compound 2a, (S)—N-(2-(2-(2-aminoethoxy)ethoxy)ethyl)-3-methyl-2-(4-(4-sulfamoylphenyl)-1H-1,2,3-triazol-1-yl)butanamide fluorescein conjugate], the Kd in series [1] came out at 18.1 ± 1.3 nM.
